From the supplement of paper PMC10307832

What was measured:
Assay in all cases: relative viability (nuclei count vs DMSO), 5 days (fraction); higher = more cells survive
BEN = tested on: BEN
In short: (§1)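 Five library-drug doses in √10 steps were combined with a fixed anchor-drug dose, or a single drug was given alone, by pin tool to lung cancer cell lines in 1536-well plates the day after seeding. Nuclei were stained and counted after 5 days. Relative viability is the nuclei count in treated wells over that in vehicle wells, taken as the median of duplicate plates.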

RERF-LC-KJ = tested on: RERF-LC-KJ
In short: as §1

NCI-H1975 = tested on: NCI-H1975
In short: as §1

NCI-H1993 = tested on: NCI-H1993
In short: as §1

201T = tested on: 201T
In short: as §1

SK-LU-1 = tested on: SK-LU-1
In short: as §1

NCI-H1734 = tested on: NCI-H1734
In short: as §1

NCI-H596 = tested on: NCI-H596
In short: as §1

NCI-H1650 = tested on: NCI-H1650
In short: as §1

EKVX = tested on: EKVX
In short: as §1

LC-2-ad = tested on: LC-2-ad
In short: as §1

HCC-15 = tested on: HCC-15
In short: as §1

NCI-H3122 = tested on: NCI-H3122
In short: as §1

LU99A = tested on: LU99A
In short: as §1

NCI-H1755 = tested on: NCI-H1755
In short: as §1

HCC-366 = tested on: HCC-366
In short: as §1

HARA = tested on: HARA
In short: as §1

LXF-289 = tested on: LXF-289
In short: as §1

NCI-H1944 = tested on: NCI-H1944
In short: as §1

COR-L 105 = tested on: COR-L 105
In short: as §1

HCC-827 = tested on: HCC-827
In short: as §1

COR-L23 = tested on: COR-L23
In short: as §1

HCC-78 = tested on: HCC-78
In short: as §1

O=c1[nH]c2ccccc2n1C1CCN(CCCC(c2ccc(F)cc2)c2ccc(F)cc2)CC1 [Pimozide] + N=C(N)NC(=N)NCCc1ccccc1 [Phenformin] (partner 250 µM)
relative viability (BEN; first compound 0.08 µM): 0.278
relative viability (BEN; first compound 0.253 µM): 0.274
relative viability (BEN; first compound 0.8 µM): 0.258
relative viability (BEN; first compound 2.53 µM): 0.289
relative viability (BEN; first compound 8 µM): 0.3
relative viability (RERF-LC-KJ; first compound 0.08 µM): 0.416
relative viability (RERF-LC-KJ; first compound 0.253 µM): 0.467
relative viability (RERF-LC-KJ; first compound 0.8 µM): 0.409
relative viability (RERF-LC-KJ; first compound 2.53 µM): 0.264
relative viability (RERF-LC-KJ; first compound 8 µM): 0.401
relative viability (NCI-H1975; first compound 0.08 µM): 0.427
relative viability (NCI-H1975; first compound 0.253 µM): 0.395
relative viability (NCI-H1975; first compound 0.8 µM): 0.414
relative viability (NCI-H1975; first compound 2.53 µM): 0.454
relative viability (NCI-H1975; first compound 8 µM): 0.391
relative viability (NCI-H1993; first compound 0.08 µM): 0.477
relative viability (NCI-H1993; first compound 0.253 µM): 0.509
relative viability (NCI-H1993; first compound 0.8 µM): 0.455
relative viability (NCI-H1993; first compound 2.53 µM): 0.522
relative viability (NCI-H1993; first compound 8 µM): 0.49
relative viability (201T; first compound 0.08 µM): 0.467
relative viability (201T; first compound 0.253 µM): 0.404
relative viability (201T; first compound 0.8 µM): 0.444
relative viability (201T; first compound 2.53 µM): 0.379
relative viability (201T; first compound 8 µM): 0.44
relative viability (SK-LU-1; first compound 0.08 µM): 0.559
relative viability (SK-LU-1; first compound 0.253 µM): 0.533
relative viability (SK-LU-1; first compound 0.8 µM): 0.558
relative viability (SK-LU-1; first compound 2.53 µM): 0.532
relative viability (SK-LU-1; first compound 8 µM): 0.415
relative viability (NCI-H1734; first compound 0.08 µM): 0.408
relative viability (NCI-H1734; first compound 0.253 µM): 0.366
relative viability (NCI-H1734; first compound 2.53 µM): 0.373
relative viability (NCI-H1734; first compound 8 µM): 0.426
relative viability (NCI-H596; first compound 0.08 µM): 0.751
relative viability (NCI-H596; first compound 0.253 µM): 0.774
relative viability (NCI-H596; first compound 0.8 µM): 0.588
relative viability (NCI-H596; first compound 2.53 µM): 0.637
relative viability (NCI-H596; first compound 8 µM): 0.897
relative viability (NCI-H1650; first compound 0.08 µM): 0.378
relative viability (NCI-H1650; first compound 0.253 µM): 0.45
relative viability (NCI-H1650; first compound 0.8 µM): 0.495
relative viability (NCI-H1650; first compound 2.53 µM): 0.418
relative viability (NCI-H1650; first compound 8 µM): 0.306
relative viability (EKVX; first compound 0.08 µM): 0.192
relative viability (EKVX; first compound 0.253 µM): 0.235
relative viability (EKVX; first compound 0.8 µM): 0.201
relative viability (EKVX; first compound 2.53 µM): 0.235
relative viability (EKVX; first compound 8 µM): 0.226
relative viability (LC-2-ad; first compound 0.08 µM): 0.573
relative viability (LC-2-ad; first compound 0.253 µM): 0.558
relative viability (LC-2-ad; first compound 0.8 µM): 0.571
relative viability (LC-2-ad; first compound 2.53 µM): 0.623
relative viability (LC-2-ad; first compound 8 µM): 0.605
relative viability (HCC-15; first compound 0.08 µM): 0.511
relative viability (HCC-15; first compound 0.253 µM): 0.431
relative viability (HCC-15; first compound 0.8 µM): 0.432
relative viability (HCC-15; first compound 2.53 µM): 0.433
relative viability (HCC-15; first compound 8 µM): 0.448
relative viability (NCI-H3122; first compound 0.08 µM): 0.372
relative viability (NCI-H3122; first compound 0.253 µM): 0.362
relative viability (NCI-H3122; first compound 0.8 µM): 0.393
relative viability (NCI-H3122; first compound 2.53 µM): 0.343
relative viability (NCI-H3122; first compound 8 µM): 0.312
relative viability (LU99A; first compound 0.08 µM): 0.803
relative viability (LU99A; first compound 0.253 µM): 0.837
relative viability (LU99A; first compound 0.8 µM): 0.573
relative viability (LU99A; first compound 2.53 µM): 0.765
relative viability (LU99A; first compound 8 µM): 0.897
relative viability (NCI-H1755; first compound 0.08 µM): 0.585
relative viability (NCI-H1755; first compound 0.253 µM): 0.587
relative viability (NCI-H1755; first compound 0.8 µM): 0.574
relative viability (NCI-H1755; first compound 2.53 µM): 0.64
relative viability (NCI-H1755; first compound 8 µM): 0.538
relative viability (HCC-366; first compound 0.08 µM): 0.664
relative viability (HCC-366; first compound 0.253 µM): 0.609
relative viability (HCC-366; first compound 0.8 µM): 0.528
relative viability (HCC-366; first compound 2.53 µM): 0.535
relative viability (HCC-366; first compound 8 µM): 0.469
relative viability (HARA; first compound 0.253 µM): 0.503
relative viability (HARA; first compound 0.8 µM): 0.405
relative viability (HARA; first compound 2.53 µM): 0.423
relative viability (HARA; first compound 8 µM): 0.431
relative viability (LXF-289; first compound 0.08 µM): 0.501
relative viability (LXF-289; first compound 0.253 µM): 0.502
relative viability (LXF-289; first compound 0.8 µM): 0.475
relative viability (LXF-289; first compound 2.53 µM): 0.505
relative viability (LXF-289; first compound 8 µM): 0.487
relative viability (NCI-H1944; first compound 0.08 µM): 0.191
relative viability (NCI-H1944; first compound 0.253 µM): 0.197
relative viability (NCI-H1944; first compound 0.8 µM): 0.187
relative viability (NCI-H1944; first compound 2.53 µM): 0.184
relative viability (NCI-H1944; first compound 8 µM): 0.198
relative viability (COR-L 105; first compound 0.253 µM): 0.519
relative viability (COR-L 105; first compound 0.8 µM): 0.512
relative viability (COR-L 105; first compound 2.53 µM): 0.471
relative viability (COR-L 105; first compound 8 µM): 0.473
relative viability (HCC-827; first compound 0.253 µM): 0.403
relative viability (HCC-827; first compound 0.8 µM): 0.464
relative viability (HCC-827; first compound 2.53 µM): 0.443
relative viability (HCC-827; first compound 8 µM): 0.42
relative viability (COR-L23; first compound 0.08 µM): 0.455
relative viability (COR-L23; first compound 0.253 µM): 0.479
relative viability (COR-L23; first compound 0.8 µM): 0.407
relative viability (COR-L23; first compound 2.53 µM): 0.456
relative viability (COR-L23; first compound 8 µM): 0.49
relative viability (HCC-78; first compound 0.08 µM): 0.781
relative viability (HCC-78; first compound 0.8 µM): 0.628
relative viability (HCC-78; first compound 2.53 µM): 0.635
relative viability (HCC-78; first compound 8 µM): 0.678
